Test results as given in US6403647B1, “Pulsed administration of compositions for the treatment of blood disorders” (priority 1996, dated 2002).

How the values were obtained:
fetal globin [1] = assay: Proportion of fetal globin-expressing cells in culture, fluorescent antibodies, sickle cell patient; format: cell-based, human; details: concentration not given, 14 days, controls 40.7%
Protocol: In a fourth experiment, erythroid cells were obtained from a sickle cell patient. These cells were established in culture both with and without test a variety of test compounds. Cultures were incubated for 14 days in methylcellulose media with maximal concentrations of all hematopoietic growth factors (GM-CSF, SCF, EPO). Colonies were analyzed using fluorescent monoclonal antibodies against fetal globin to determine the proportion of erythroid cells that expressed fetal globin.

fetal globin [2] = assay: Fetal globin production in erythroid progenitor colonies (Bfu-e), sickle cell anemia patient; format: cell-based, human; details: controls 48% of non-α globin
[3] = test system: system A transport of amino acids; assay: Uptake of 3H-methyl-aminoisobutyric acid (MeAIB) into erythroblasts; format: cell-based; details: for amino acid (MeAIB) uptake / transport: 2.0 mM, relative to untreated fetal liver erythroid cells
Protocol: Erythroblasts were tested for alterations in uptake of radio-labelled amino acid (^3H-methyl-aminoisobutyric acid; MeAIB) in the presence of AB (arginine butyrate), AMHCA (α-methylhydrocinnamic acid), PAA (phenoxyacetic acid), and IBT (isobutyramide), each at 2.0 mM.

γ-globin expression = assay: γ-globin mRNA by RNase protection in erythroid cell cultures of normal individuals; format: cell-based, human; details: for x increase in % s: over ChFCS
Protocol: Fetal globin production was determined in erythroid progenitor cells cultured in the presence or absence of test compositions. Erythroid cells were purified from blood obtained from a normal individual . […] Erythroid cell cultures were established with the following conditions: IMDM methylcellulose media, erythropoietin (3 U/ml), the human subjects' mononuclear cells, 30% charcoal-absorbed fetal calf serum, and the test compounds at varying micromolar concentrations.
Compounds were tested for their ability to induce expression of fetal globin expression in erythroid cell cultures established from the peripheral blood of normal individuals. Colonies were harvested and assayed for globin mRNA following 14 days of culture. Each compound was tested in duplicate cultures from 2-4 individual human subjects. Globin expression was quantitated by RNase protection assay for % gamma globin as a fraction of total non-alpha globin (% gamma/gamma+beta globin mRNA).

Compound: CCC(C)(C)C(=O)O [2,2-dimethylbutyric acid]
- Increase in γ-Globin Expressing Cells (fetal globin [1]): 70.1%
- increase in fetal globin over controls (fetal globin [2]): 24%
- amino acid (MeAIB) uptake / transport [3]: moderate inhibition of transport
- inhibition of MeAIB uptake ([3]; after 60 and 120 minutes): somewhat less so

Compound: CCOC(=O)/C=C/C(=O)O [fumaric acid monoethyl ester]
- Increase in γ-Globin Expressing Cells (fetal globin [1]): 59.1%
- amino acid (MeAIB) uptake / transport [3]: did not inhibit amino acid transport

Compound: COCC(=O)O [methoxyacetic acid]
- increase in fetal globin over controls (fetal globin [2]): 3%

Compound: O=C(CCCCCCC(=O)NO)NO [suberoyl bis hydroxamic acid, Suberoyl bis hydroxamic acid]
- x increase in % s (γ-globin expression; 0.5 μM, group 1 (99-3a, 99-3b)): 1.6 x
- γ/γ + β (γ-globin expression; 0.5 μM, group 1, subject 99-3a): 13.54%
- γ/γ + β (γ-globin expression; 0.5 μM, group 1, subject 99-3b): 11.55%
- γ/γ + β mean (γ-globin expression; 0.5 μM, group 1, subjects 99-3a, 99-3b): 12.55%
- x increase in % s (γ-globin expression; 0.5 μM, group 2 (99-4, 99-5)): 0.9 x
- γ/γ + β (γ-globin expression; 0.5 μM, group 2, subject 99-4): 6.25%
- γ/γ + β (γ-globin expression; 0.5 μM, group 2, subject 99-5): 6.42%
- γ/γ + β mean (γ-globin expression; 0.5 μM, group 2, subjects 99-4, 99-5): 6.34%
- x increase in % s (γ-globin expression; 1 μM, group 1 (99-3a, 99-3b)): 1.3 x
- γ/γ + β (γ-globin expression; 1 μM, group 1, subject 99-3a): 10.99%
- γ/γ + β (γ-globin expression; 1 μM, group 1, subject 99-3b): 9.19%
- γ/γ + β mean (γ-globin expression; 1 μM, group 1, subjects 99-3a, 99-3b): 10.09%
- x increase in % s (γ-globin expression; 1 μM, group 2 (99-4, 99-5)): 1.2 x
- γ/γ + β (γ-globin expression; 1 μM, group 2, subject 99-4): 8.46%
- γ/γ + β mean (γ-globin expression; 1 μM, group 2, subject 99-4 only): 8.46%
- x increase in % s (γ-globin expression; 1 μM, group 3 (99-6, 99-7, 99-10)): 1.5 x
- γ/γ + β (γ-globin expression; 1 μM, group 3, subject 99-6): 5.41%
- γ/γ + β (γ-globin expression; 1 μM, group 3, subject 99-7): 10.76%
- γ/γ + β (γ-globin expression; 1 μM, group 3, subject 99-10): 6.92%
- γ/γ + β mean (γ-globin expression; 1 μM, group 3, subjects 99-6, 99-7, 99-10): 7.70%
- x increase in % s (γ-globin expression; 2 μM, group 1 (99-3a, 99-3b)): 2.9 x
- γ/γ + β (γ-globin expression; 2 μM, group 1, subject 99-3a): 21.36%
- γ/γ + β (γ-globin expression; 2 μM, group 1, subject 99-3b): 23.63%
- γ/γ + β mean (γ-globin expression; 2 μM, group 1, subjects 99-3a, 99-3b): 22.50%
- x increase in % s (γ-globin expression; 2 μM, group 2 (99-4, 99-5)): 1.5 x
- γ/γ + β (γ-globin expression; 2 μM, group 2, subject 99-4): 9.92%
- γ/γ + β (γ-globin expression; 2 μM, group 2, subject 99-5): 10.65%
- γ/γ + β mean (γ-globin expression; 2 μM, group 2, subjects 99-4, 99-5): 10.29%
- x increase in % s (γ-globin expression; 2 μM, group 3 (99-6, 99-7, 99-10)): 2.1 x
- γ/γ + β (γ-globin expression; 2 μM, group 3, subject 99-6): 6.65%
- γ/γ + β (γ-globin expression; 2 μM, group 3, subject 99-7): 15.75%
- γ/γ + β (γ-globin expression; 2 μM, group 3, subject 99-10): 10.00%
- γ/γ + β mean (γ-globin expression; 2 μM, group 3, subjects 99-6, 99-7, 99-10): 10.80%
- x increase in % s (γ-globin expression; 3 μM, group 1 (99-3a, 99-3b)): 3.2 x
- γ/γ + β (γ-globin expression; 3 μM, group 1, subject 99-3a): 24.90%
- γ/γ + β (γ-globin expression; 3 μM, group 1, subject 99-3b): 23.72%
- γ/γ + β mean (γ-globin expression; 3 μM, group 1, subjects 99-3a, 99-3b): 24.31%
- x increase in % s (γ-globin expression; 3 μM, group 2 (99-4, 99-5)): 2.6 x
- γ/γ + β (γ-globin expression; 3 μM, group 2, subject 99-4): 17.99%
- γ/γ + β (γ-globin expression; 3 μM, group 2, subject 99-5): 17.89%
- γ/γ + β mean (γ-globin expression; 3 μM, group 2, subjects 99-4, 99-5): 17.94%
- x increase in % s (γ-globin expression; 4 μM, group 1 (99-3a, 99-3b)): 6.4 x
- γ/γ + β (γ-globin expression; 4 μM, group 1, subject 99-3a): 48.57%
- γ/γ + β (γ-globin expression; 4 μM, group 1, subject 99-3b): 50.66%
- γ/γ + β mean (γ-globin expression; 4 μM, group 1, subjects 99-3a, 99-3b): 49.62%
- x increase in % s (γ-globin expression; 4 μM, group 2 (99-4, 99-5)): 3.4 x
- γ/γ + β (γ-globin expression; 4 μM, group 2, subject 99-4): 24.10%
- γ/γ + β mean (γ-globin expression; 4 μM, group 2, subject 99-4 only): 24.10%
- x increase in % s (γ-globin expression; 4 μM, group 3 (99-6, 99-7, 99-10)): 3.9 x
- γ/γ + β (γ-globin expression; 4 μM, group 3, subject 99-6): 13.33%
- γ/γ + β (γ-globin expression; 4 μM, group 3, subject 99-7): 30.45%
- γ/γ + β (γ-globin expression; 4 μM, group 3, subject 99-10): 15.73%
- γ/γ + β mean (γ-globin expression; 4 μM, group 3, subjects 99-6, 99-7, 99-10): 19.84%
- x increase in % s (γ-globin expression; 4 μM, group 4 (99-10, 00-1, 00-3)): 1.7 x
- γ/γ + β (γ-globin expression; 4 μM, group 4, subject 00-1): 4.82%
- γ/γ + β (γ-globin expression; 4 μM, group 4, subject 00-3): 5.01%
- γ/γ + β (γ-globin expression; 4 μM, group 4, subject 99-10): 11.38%
- γ/γ + β mean (γ-globin expression; 4 μM, group 4, subjects 99-10, 00-1, 00-3): 7.07%
- x increase in % s (γ-globin expression; 6 μM, group 3 (99-6, 99-7, 99-10)): 5.5 x
- γ/γ + β (γ-globin expression; 6 μM, group 3, subject 99-6): 22.97%
- γ/γ + β (γ-globin expression; 6 μM, group 3, subject 99-7): 31.51%
- γ/γ + β (γ-globin expression; 6 μM, group 3, subject 99-10): 29.15%
- γ/γ + β mean (γ-globin expression; 6 μM, group 3, subjects 99-6, 99-7, 99-10): 27.88%
- x increase in % s (γ-globin expression; 6 μM, group 4 (99-10, 00-1, 00-3)): 2.7 x
- γ/γ + β (γ-globin expression; 6 μM, group 4, subject 00-1): 9.46%
- γ/γ + β (γ-globin expression; 6 μM, group 4, subject 00-3): 8.89%
- γ/γ + β (γ-globin expression; 6 μM, group 4, subject 99-10): 16.34%
- γ/γ + β mean (γ-globin expression; 6 μM, group 4, subjects 99-10, 00-1, 00-3): 11.56%
- x increase in % s (γ-globin expression; 8 μM, group 3 (99-6, 99-7, 99-10)): 7.4 x
- γ/γ + β (γ-globin expression; 8 μM, group 3, subject 99-6): 31.99%
- γ/γ + β (γ-globin expression; 8 μM, group 3, subject 99-7): 44.02%
- γ/γ + β (γ-globin expression; 8 μM, group 3, subject 99-10): 35.73%
- γ/γ + β mean (γ-globin expression; 8 μM, group 3, subjects 99-6, 99-7, 99-10): 37.25%
- x increase in % s (γ-globin expression; 8 μM, group 4 (99-10, 00-1, 00-3)): 4.4 x
- γ/γ + β (γ-globin expression; 8 μM, group 4, subject 00-1): 12.88%
- γ/γ + β (γ-globin expression; 8 μM, group 4, subject 00-3): 21.68%
- γ/γ + β (γ-globin expression; 8 μM, group 4, subject 99-10): 21.37%
- γ/γ + β mean (γ-globin expression; 8 μM, group 4, subjects 99-10, 00-1, 00-3): 18.64%
- x increase in % s (γ-globin expression; 10 μM, group 4 (99-10, 00-1, 00-3)): 7.3 x
- γ/γ + β (γ-globin expression; 10 μM, group 4, subject 00-1): 27.89%
- γ/γ + β (γ-globin expression; 10 μM, group 4, subject 00-3): 31.25%
- γ/γ + β (γ-globin expression; 10 μM, group 4, subject 99-10): 35.06%
- γ/γ + β mean (γ-globin expression; 10 μM, group 4, subjects 99-10, 00-1, 00-3): 31.40%
- x increase in % s (γ-globin expression; 12 μM, group 4 (99-10, 00-1, 00-3)): 10.8 x
- γ/γ + β (γ-globin expression; 12 μM, group 4, subject 00-3): 45.69%
- γ/γ + β (γ-globin expression; 12 μM, group 4, subject 99-10): 46.94%
- γ/γ + β mean (γ-globin expression; 12 μM, group 4, subjects 99-10, 00-3): 46.32%

Compound: O=C(O)CSc1ccccc1 [thiophenoxyacetic acid]
- increase in fetal globin over controls (fetal globin [2]): 38%

Compound: CC(=Cc1ccccc1)C(=O)O [α-methylcinnamic acid]
- increase in fetal globin over controls (fetal globin [2]): 12%

Compound: diethyl butyric acid
- amino acid (MeAIB) uptake / transport [3]: did not inhibit amino acid transport
